Laboratory results: US6734187B1, “Purine derivatives and medicaments comprising the same as active ingredient” (Mitsubishi Chemical Corporation, priority 1997, dated 2004)

Assays:
[1] = target: Type IV Phosphodiesterase (PDE IV); test: Effect on enzymatic activity of type IV phosphodiesterase (PDE IV); format: biochemical; conditions: crude enzyme from cytoplasmic fraction of human monocyte-like cell strain U937; 3H-cAMP substrate, 30° C., 15 minutes; read-out: PDE IV Inhibitory Activity: IC50
Protocol: PDE IV inhibitory activity of the compounds of the present invention was examined. […] Adv.
Effect on Enzymatic Activity of Type IV Phosphodiesterase (PDE IV)
After a test compound was added, the reaction mixture was incubated at 30° C. for 15 minutes, and then added with the substrate.

Structure (SMILES) | IC50 [1] [nM] | melting point [°C]
COc1ccc(Cn2cnc3c(N(C)C)nc(NCc4cccnc4)nc32)cc1OC1CCCC1 [compound 104] | 1.1 | 112 to 114
COc1ccc(Cn2cnc3ncnc(OCc4cccnc4)c32)cc1OC1CCCC1 [compound 137] | 64 | 143 to 145
COc1ccc(Cn2c(C)nc3cnc(OCc4cccnc4)nc32)cc1OC1CCCC1 [compound 36] | 2.6 | –
CNc1nc(OCCCc2ccncc2)nc2c1ncn2Cc1ccc(OC)c(OC2CCCC2)c1 [compound 72] | 0.75 | 138 to 140
COc1ccc(Cn2cnc3c(OCc4cccnc4)ncnc32)cc1OC1CCCC1 [compound 2] | 8.9 | –
COc1ccc(Cn2c(C)nc3cnc(OCCCc4ccncc4)nc32)cc1OC1CCCC1 [compound 56] | 1.3 | 115 to 117
CCCNc1nc(OCCCc2ccncc2)nc2c1ncn2Cc1ccc(OC)c(OC2CCCC2)c1 [compound 93] | 0.44 | 130 to 131
COc1ccc(Cn2cnc3c(N(C)C)nc(OCc4ccoc4)nc32)cc1OC1CCCC1 [compound 88] | 0.2 | 92 to 93
CCNc1nc(OCCCc2ccncc2)nc2c1ncn2Cc1ccc(OC)c(OC2CCCC2)c1 [compound 83] | 0.69 | 127 to 128
COc1ccc(Cn2c(C)nc3c(C)nc(OCc4cc[n+]([O-])cc4)nc32)cc1OC1CCCC1 [compound 102] | 15 | 157 to 158
COc1ccc(Cn2cnc3cnc(NCc4cccs4)nc32)cc1OC1CCCC1 [compound 41] | 0.47 | 141 to 142
COc1ccc(Cn2cnc3c(N(C)C)nc(OCCCc4ccncc4)nc32)cc1OC1CCCC1 [compound 82] | 0.82 | 78 to 80
COc1ccc(Cn2cnc3c(C)nc(NCc4ccncc4)nc32)cc1OC1CCCC1 [compound 84] | 1.9 | 137 to 138
COc1ccc(Cn2c(C)nc3c(C)nc(OCc4ccncc4)nc32)cc1OC1CCCC1 [compound 95] | 1.7 | 125 to 126
COc1ccc(Cn2c(C)nc3cnc(NCc4ccc(OCC(F)(F)F)nc4)nc32)cc1OC1CCCC1 [compound 77] | 0.83 | 125 to 127
COc1ccc(Cn2cnc3cnc(OCCCc4ccncc4)nc32)cc1OC1CCOC1 (centres unmarked) [compound 55] | 4.5 | 128 to 130
COc1ccc(Cn2cnc3ncnc(Oc4cccnc4)c32)cc1OC1CCCC1 [compound 139] | 54 | 134 to 135
CCNc1nc(OCCCc2cc[n+]([O-])cc2)nc2c1ncn2Cc1ccc(OC)c(OC2CCCC2)c1 [compound 122] | 15 | 85 to 88
COc1ccc(Cn2cnc3c(N)nc(OCCCc4ccncc4)nc32)cc1OC1CCCC1 [compound 66] | 1.4 | 152 to 153
COc1ccc(Cn2c(C)nc3c(C)nc(NCc4cccnn4)nc32)cc1OC1CCCC1 [compound 113] | 24 | 164 to 166
CCNc1nc(Cl)nc2c1ncn2Cc1ccc(OC)c(OC2CCCC2)c1 [compound 134] | 41 | 129 to 131
COc1ccc(Cn2c(C)nc3c(C)nc(OCc4cc(C)nn4C)nc32)cc1OC1CCCC1 [compound 112] | 0.22 | 112 to 123
COc1ccc(Cn2c(C)nc3cnc(NCc4cccnc4)nc32)cc1OC1CCCC1 [compound 37] | 1 | –
CCNc1nc(OCc2cccnn2)nc2c1ncn2Cc1ccc(OC)c(OC2CCCC2)c1 [compound 96, 9-[(3-cyclopentyloxy-4-methoxy)benzyl]-6-ethylamino-2-[(3-pyridazinyl)methyloxy]purine] | 3.8 | 121 to 122
COc1ccc(Cn2c(C)nc3c(C)nc(SCc4cccnc4)nc32)cc1OC1CCCC1 [compound 119] | 0.64 | 116 to 117
